Laboratory results taken from US20080153896A1, “Polymorphic Forms of an HMG-CoA Reductase Inhibitor and Uses Thereof” (priority 2006, published 2008).

Assay: Stability (integrity) testing of amorphous and polymorphic form under storage conditions, RP-HPLC
Format: physicochemical
Parameters: key to Impurity RRT 0.738 / Impurity RRT 0.949 / Impurity RRT 1.050 / Impurity RRT 1.550 / Impurity RRT 0.136 / Impurity RRT 0.720 / Impurity RRT 0.706 / Impurity RRT 1.18 / Impurity RRT 1.826: % of total UV absorption (HPLC peak area); Impurity RRT 1.104 / Impurity RRT 1.698: unit not given beside the values
Details: for Total: in %
Description: The integrity of the different forms of the (3R, 5R)-7-[2-(4-fluorophenyl)-5-isopropyl-3-phenyl-4-[(4-hydroxymethylphenylamino)carbonyl]-pyrrol-1-yl]-3,5-dihydroxy-heptanoic acid, hemi calcium salt, was tested under different atmospheric conditions to determine the stability of the amorphous and polymorphic form of the drug in various storage environments. Reversed Phase-HPLC (RP-HPLC) was used to separate (3R, 5R)-7-[2-(4-fluorophenyl)-5-isopropyl-3-phenyl-4-[(4-hydroxymethylphenylamino)carbonyl]-pyrrol-1-yl]-3,5-dihydroxy-heptanoic acid, hemi calcium salt, from smaller molecules representing breakdown products as well as oxidized drug. The relative amount of the drug was reported as a percent of total absorption by UV. The total peak area of all UV absorption impurities was used to define total impurity of the drug. Impurities are defined by their relative retention time (RRT) compared to native drug. Samples were injected onto a C18 column using standard temperature, gradient and run-time conditions.
The results of this integrity testing for the amorphous form of (3R, 5R)-7-[2-(4-fluorophenyl)-5-isopropyl-3-phenyl-4-[(4-hydroxymethylphenylamino)carbonyl]-pyrrol-1-yl]-3,5-dihydroxy-heptanoic acid, hemi calcium salt, is shown in Table 5.
Three separate batches of polymorphic Form I of (3R, 5R)-7-[2-(4-fluorophenyl)-5-isopropyl-3-phenyl-4-[(4-hydroxymethylphenylamino)carbonyl]-pyrrol-1-yl]-3,5-dihydroxy-heptanoic acid, hemi calcium salt, were prepared and tested under the same atmospheric conditions described for the amorphous form.

Impurity RRT 0.731 (5° C. 1 month): 0.030 | Impurity RRT 0.832 (5° C. 1 month): 0.034 | Impurity RRT 0.876 (5° C. 1 month): 0.150 | Impurity RRT 0.952 (5° C. 1 month): 0.040 | Impurity RRT 0.965 (5° C. 1 month): 0.532 | Impurity RRT 0.974 (5° C. 1 month): 0.052 | Impurity RRT 0.991 (5° C. 1 month): 0.022 | Impurity RRT 1.024 (5° C. 1 month): 0.459 | Impurity RRT 1.041 (5° C. 1 month): 0.585 | Total (5° C. 1 month): 1.904 | Impurity RRT 0.885 (5° C. 2 months): 0.177 | Impurity RRT 0.952 (5° C. 2 months): 0.048 | Impurity RRT 0.965 (5° C. 2 months): 0.501 | Impurity RRT 0.974 (5° C. 2 months): 0.067 | Impurity RRT 0.991 (5° C. 2 months): 0.029 | Impurity RRT 1.024 (5° C. 2 months): 0.508 | Impurity RRT 1.041 (5° C. 2 months): 0.604 | Total (5° C. 2 months): 1.934 | Impurity RRT 0.892 (5° C. 3 months): 0.161 | Impurity RRT 0.965 (5° C. 3 months): 0.550 | Impurity RRT 0.981 (5° C. 3 months): 0.058 | Impurity RRT 1.024 (5° C. 3 months): 0.506 | Impurity RRT 1.041 (5° C. 3 months): 0.635 | Total (5° C. 3 months): 1.91 | Impurity RRT 0.731 (5° C. 6 months): 0.037 | Impurity RRT 0.832 (5° C. 6 months): 0.028 | Impurity RRT 0.876 (5° C. 6 months): 0.014 | Impurity RRT 0.892 (5° C. 6 months): 0.016 | Impurity RRT 0.952 (5° C. 6 months): 0.024 | Impurity RRT 0.965 (5° C. 6 months): 0.552 | Impurity RRT 1.024 (5° C. 6 months): 0.582 | Impurity RRT 1.041 (5° C. 6 months): 0.592 | Impurity RRT 1.074 (5° C. 6 months): 0.028 | Total (5° C. 6 months): 1.873 | Impurity RRT 0.885 (25° C./60% RH 3 months): 0.145 | Impurity RRT 0.892 (25° C./60% RH 3 months): 0.212 | Impurity RRT 0.965 (25° C./60% RH 3 months): 0.542 | Impurity RRT 0.981 (25° C./60% RH 3 months): 0.058 | Impurity RRT 1.024 (25° C./60% RH 3 months): 0.518 | Impurity RRT 1.041 (25° C./60% RH 3 months): 0.648 | Total (25° C./60% RH 3 months): 2.123 | Impurity RRT 0.731 (25° C./60% RH 6 months): 0.031 | Impurity RRT 0.832 (25° C./60% RH 6 months): 0.029 | Impurity RRT 0.876 (25° C./60% RH 6 months): 0.133 | Impurity RRT 0.892 (25° C./60% RH 6 months): 0.124 | Impurity RRT 0.952 (25° C./60% RH 6 months): 0.037 | Impurity RRT 0.965 (25° C./60% RH 6 months): 0.546 | Impurity RRT 1.024 (25° C./60% RH 6 months): 0.618 | Impurity RRT 1.041 (25° C./60% RH 6 months): 0.593 | Impurity RRT 1.074 (25° C./60% RH 6 months): 0.068 | Impurity RRT 1.104 (25° C./60% RH 6 months): 0.037 | Total (25° C./60% RH 6 months): 2.216 | Impurity RRT 0.885 (30° C./55% RH 6 months): 0.187 | Impurity RRT 0.892 (30° C./55% RH 6 months): 0.168 | Impurity RRT 0.965 (30° C./55% RH 6 months): 0.699 | Impurity RRT 1.024 (30° C./55% RH 6 months): 0.693 | Impurity RRT 1.041 (30° C./55% RH 6 months): 0.777 | Impurity RRT 1.074 (30° C./55% RH 6 months): 0.103 | Impurity RRT 1.104 (30° C./55% RH 6 months): 0.032 | Total (30° C./55% RH 6 months): 2.659 | Impurity RRT 0.731 (30° C./65% RH 1 month): 0.038 | Impurity RRT 0.832 (30° C./65% RH 1 month): 0.037 | Impurity RRT 0.876 (30° C./65% RH 1 month): 0.145 | Impurity RRT 0.892 (30° C./65% RH 1 month): 0.038 | Impurity RRT 0.952 (30° C./65% RH 1 month): 0.042 | Impurity RRT 0.965 (30° C./65% RH 1 month): 0.512 | Impurity RRT 0.974 (30° C./65% RH 1 month): 0.054 | Impurity RRT 0.991 (30° C./65% RH 1 month): 0.018 | Impurity RRT 1.024 (30° C./65% RH 1 month): 0.464 | Impurity RRT 1.041 (30° C./65% RH 1 month): 0.587 | Impurity RRT 1.074 (30° C./65% RH 1 month): 0.021 | Total (30° C./65% RH 1 month): 1.956 | Impurity RRT 0.885 (30° C./65% RH 2 months): 0.154 | Impurity RRT 0.892 (30° C./65% RH 2 months): 0.119 | Impurity RRT 0.952 (30° C./65% RH 2 months): 0.050 | Impurity RRT 0.965 (30° C./65% RH 2 months): 0.505 | Impurity RRT 0.974 (30° C./65% RH 2 months): 0.042 | Impurity RRT 0.991 (30° C./65% RH 2 months): 0.022 | Impurity RRT 1.024 (30° C./65% RH 2 months): 0.524 | Impurity RRT 1.041 (30° C./65% RH 2 months): 0.611 | Total (30° C./65% RH 2 months): 2.027 | Impurity RRT 0.832 (30° C./65% RH 3 months): 0.046 | Impurity RRT 0.892 (30° C./65% RH 3 months): 0.184 | Impurity RRT 0.965 (30° C./65% RH 3 months): 0.542 | Impurity RRT 0.981 (30° C./65% RH 3 months): 0.057 | Impurity RRT 1.024 (30° C./65% RH 3 months): 0.516 | Impurity RRT 1.041 (30° C./65% RH 3 months): 0.638 | Total (30° C./65% RH 3 months): 1.983 | Impurity RRT 0.731 (40° C./75% RH 1 month): 0.039 | Impurity RRT 0.832 (40° C./75% RH 1 month): 0.034 | Impurity RRT 0.876 (40° C./75% RH 1 month): 0.125 | Impurity RRT 0.892 (40° C./75% RH 1 month): 0.055 | Impurity RRT 0.965 (40° C./75% RH 1 month): 0.526 | Impurity RRT 0.974 (40° C./75% RH 1 month): 0.071 | Impurity RRT 0.991 (40° C./75% RH 1 month): 0.024 | Impurity RRT 1.024 (40° C./75% RH 1 month): 0.464 | Impurity RRT 1.041 (40° C./75% RH 1 month): 0.565 | Impurity RRT 1.074 (40° C./75% RH 1 month): 0.032 | Total (40° C./75% RH 1 month): 1.955 | Impurity RRT 0.738 (40° C./75% RH 2 months): 0.042 | Impurity RRT 0.885 (40° C./75% RH 2 months): 0.159 | Impurity RRT 0.892 (40° C./75% RH 2 months): 0.127 | Impurity RRT 0.949 (40° C./75% RH 2 months): 0.063 | Impurity RRT 0.965 (40° C./75% RH 2 months): 0.547 | Impurity RRT 0.991 (40° C./75% RH 2 months): 0.027 | Impurity RRT 1.024 (40° C./75% RH 2 months): 0.543 | Impurity RRT 1.041 (40° C./75% RH 2 months): 0.622 | Impurity RRT 1.074 (40° C./75% RH 2 months): 0.077 | Total (40° C./75% RH 2 months): 2.207 | Impurity RRT 0.892 (40° C./75% RH 3 months): 0.189 | Impurity RRT 0.965 (40° C./75% RH 3 months): 0.548 | Impurity RRT 0.981 (40° C./75% RH 3 months): 0.065 | Impurity RRT 1.024 (40° C./75% RH 3 months): 0.515 | Impurity RRT 1.041 (40° C./75% RH 3 months): 0.632 | Impurity RRT 1.104 (40° C./75% RH 3 months): 0.074 | Total (40° C./75% RH 3 months): 2.023 | Impurity RRT 0.731 (40° C./75% RH 6 months): 0.031 | Impurity RRT 0.832 (40° C./75% RH 6 months): 0.031 | Impurity RRT 0.876 (40° C./75% RH 6 months): 0.152 | Impurity RRT 0.892 (40° C./75% RH 6 months): 0.19 | Impurity RRT 0.952 (40° C./75% RH 6 months): 0.022 | Impurity RRT 0.965 (40° C./75% RH 6 months): 0.497 | Impurity RRT 1.024 (40° C./75% RH 6 months): 0.460 | Impurity RRT 1.041 (40° C./75% RH 6 months): 0.573 | Impurity RRT 1.050 (40° C./75% RH 6 months): 0.094 | Impurity RRT 1.074 (40° C./75% RH 6 months): 0.025 | Impurity RRT 1.104 (40° C./75% RH 6 months): 0.037 | Total (40° C./75% RH 6 months): 2.112 | Impurity RRT 0.876 (Initial): 0.146 | Impurity RRT 0.965 (Initial): 0.560 | Impurity RRT 0.991 (Initial): 0.022 | Impurity RRT 1.024 (Initial): 0.464 | Impurity RRT 1.041 (Initial): 0.581 | Total (Initial): 1.703
Compound: CC(C)c1c(C(=O)Nc2ccc(CO)cc2)c(-c2ccccc2)c(-c2ccc(F)cc2)n1CC[C@@H](O)C[C@@H](O)CC(=O)[O-].CC(C)c1c(C(=O)Nc2ccc(CO)cc2)c(-c2ccccc2)c(-c2ccc(F)cc2)n1CC[C@@H](O)C[C@@H](O)CC(=O)[O-].[Ca+2] [PP00204, (3R, 5R)-7-[2-(4-fluorophenyl)-5-isopropyl-3-phenyl-4-[(4-hydroxymethylphenylamino)carbonyl]-pyrrol-1-yl]-3,5-dihydroxy-heptanoic acid, hemi calcium salt]
